Like-named read-outs stand apart in the source and are kept apart here.
What was measured:
Type in all cases: cell-based
[1] = biological target: T1, NanoLuc-PLK1 fusion protein (Homo sapiens, UniProt P53350); experiment: NanoLuc thermal shift assay; settings: compound at 100 μM
T1 construct: NanoLuc fused to the N-termini of full-length human PLK1, PLK2, PLK3, PLK4 or p38α MAPK; expressed in transfected cells; host or cells: HeLa, transient, digitonin-permeabilised
Method: (§1) HeLa cells were transfected with plasmids encoding NanoLuc fused to the N-termini of full-length human PLK1, PLK2, PLK3, PLK4 or p38α MAPK. Twenty-four h after transfection, the thermal stability of the fusion proteins was tested using a modified version of the assay protocol supplied by Promega. Briefly, cells were harvested by tyrpsinisation and centrifugation, counted, and resuspended to 200,000 cells/ml in 3mls of serum-free OptiMEM media. Cells were then permeabilised using with 50ug/ml digitonin in DMSO for 5 min and incubated with test compounds at 100uM, plus protease inhibitor cocktail (Promega G6521), in a final concentration of 5% DMSO for 1 h at 37°C. After incubation, 100 μl/well of cells were aliquoted into a 96-well, thin-walled PCR plate and then heated for 3 minutes using a pre-warmed MJ Tetrad DNA Engine set to run a temperature gradient of 42 to 66°C. The plates were then cooled to room temperature for 10 min, and then 80μl of each sample was transferred to a white-walled 96-well Nunc plate before NanoBRET™ NanoGlo Substrate diluted in Opti-MEM was added. NanoLuc enzyme activity was read out within 10 min using a BMG Clariostar plate reader.
(§2) Nanoluciferase enzyme activity of PLK1- or PLK4-Nanoluc fusion protein was analysed using GraphPad Prism. Data were normalised as follows: (treatment A RLU value at X°C temp/treatment A RLU value at 42°C temp) x 100. Using the Boltzmann sigmoidal equation, a curve was then fitted to the normalised data. From this non-linear fit, a V50 value was generated, which in this context represents the aggregation onset temperature (Tagg), at which 50% of the PLK1- or PLK4-Nanoluc fusion protein has aggregated.

[2] = biological target: T2, NanoLuc-PLK4 fusion protein (Homo sapiens, UniProt O00444); experiment: NanoLuc thermal shift assay; settings: compound at 100 μM
T2 construct: NanoLuc fused to the N-termini of full-length human PLK1, PLK2, PLK3, PLK4 or p38α MAPK; expressed in transfected cells; host or cells: HeLa, transient, digitonin-permeabilised
T2 sequence (O00444 1-970): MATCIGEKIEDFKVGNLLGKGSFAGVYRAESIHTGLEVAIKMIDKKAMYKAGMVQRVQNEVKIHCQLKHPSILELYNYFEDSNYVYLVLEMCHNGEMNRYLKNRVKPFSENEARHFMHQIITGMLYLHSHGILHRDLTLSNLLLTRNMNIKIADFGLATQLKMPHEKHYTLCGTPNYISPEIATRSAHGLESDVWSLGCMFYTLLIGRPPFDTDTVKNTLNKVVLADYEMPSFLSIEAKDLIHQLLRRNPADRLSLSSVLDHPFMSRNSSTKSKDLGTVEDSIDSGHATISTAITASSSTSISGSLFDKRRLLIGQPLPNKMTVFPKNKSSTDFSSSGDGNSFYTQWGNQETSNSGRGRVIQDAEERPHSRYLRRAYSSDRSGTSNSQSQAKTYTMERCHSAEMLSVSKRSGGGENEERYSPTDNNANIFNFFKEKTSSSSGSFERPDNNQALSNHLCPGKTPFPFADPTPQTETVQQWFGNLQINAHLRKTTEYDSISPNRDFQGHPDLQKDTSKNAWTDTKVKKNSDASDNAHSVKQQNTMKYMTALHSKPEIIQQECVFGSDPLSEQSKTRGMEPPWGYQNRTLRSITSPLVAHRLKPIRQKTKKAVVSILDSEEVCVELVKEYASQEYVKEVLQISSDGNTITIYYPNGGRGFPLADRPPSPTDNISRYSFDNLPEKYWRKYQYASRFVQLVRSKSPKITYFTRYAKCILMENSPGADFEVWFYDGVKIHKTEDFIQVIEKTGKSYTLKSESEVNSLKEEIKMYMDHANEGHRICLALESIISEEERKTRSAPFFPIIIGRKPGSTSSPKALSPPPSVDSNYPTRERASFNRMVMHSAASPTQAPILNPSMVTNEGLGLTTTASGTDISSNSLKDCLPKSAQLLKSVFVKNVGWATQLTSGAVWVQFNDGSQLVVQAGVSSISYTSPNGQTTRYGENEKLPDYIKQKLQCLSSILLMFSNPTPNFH
Method: as §1, §2

[3] = tested on: SW48 parental (KRAS WT) cells; experiment: Cell viability (SRB), SW48 parental; settings: Homo sapiens
Method: SW48 Parental, SW48 G12D, Panc-1, HPAF-II, Panc 02.03 and Panc 05.04 cell lines were seeded overnight at 5000 cells per well in a 96 well plate in recommended media (ATCC). Compounds were added the following day and viability was measured at 72h using the sulforhodamine B (SRB) colorimetric assay as follows. Cells were fixed by replacing media with 1% v/v Trichloroacetic Acid (TCA) (Sigma-Aldrich) at 4°C and incubated for 1h also at 4°C. Wells were washed thoroughly with copious amounts of deionised water before staining with Sulforhodamine B (SRB) (Sigma-Aldrich) solution (0.057% w/v in 1% v/v Acetic Acid (VWR)) for 30 min. Stain was aspirated and wells washed with several changes of 1% v/v Acetic Acid until unbound stain was removed, before air-drying. Bound stain was solubilized with 100μl / well 10mM Tris (pH 8.0) (Trizma Base (121.1) Sigma-Aldrich) with agitation for 10 min. Fluorescence intensity was recorded at Ex540nm / Em590nm using a BMG Pherastar Plus plate reader ([Vichai and Kirtikara, 2006]).

T1 sequence (P53350 whole entry, the tested form may be a part): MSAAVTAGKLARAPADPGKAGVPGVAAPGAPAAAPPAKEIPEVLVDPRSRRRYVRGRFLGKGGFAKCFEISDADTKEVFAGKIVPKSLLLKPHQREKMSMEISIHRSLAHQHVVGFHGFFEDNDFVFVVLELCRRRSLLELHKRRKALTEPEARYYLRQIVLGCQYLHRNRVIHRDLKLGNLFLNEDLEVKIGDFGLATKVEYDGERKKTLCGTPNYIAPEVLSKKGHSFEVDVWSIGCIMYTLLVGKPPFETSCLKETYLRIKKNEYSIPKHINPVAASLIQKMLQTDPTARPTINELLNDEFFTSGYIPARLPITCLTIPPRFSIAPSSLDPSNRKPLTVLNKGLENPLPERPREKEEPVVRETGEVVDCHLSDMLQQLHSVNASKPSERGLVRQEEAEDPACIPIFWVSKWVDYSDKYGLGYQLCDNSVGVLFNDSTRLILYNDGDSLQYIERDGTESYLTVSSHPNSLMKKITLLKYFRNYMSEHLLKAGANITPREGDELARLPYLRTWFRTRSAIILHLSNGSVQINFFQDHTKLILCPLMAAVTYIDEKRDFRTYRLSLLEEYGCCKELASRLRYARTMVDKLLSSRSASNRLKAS

Row | SMILES | thermal stability of NanoLuc-PLK1 [1] | thermal stability of NanoLuc-PLK4 [2] | GI50 ([3]; SW48 Parental, 72 hr, Figure 5D, read-out: GI50) [µM] | GI50 ([3]; SW48) [µM]
1 | CN(C)CCNC(=O)c1ccc(-c2ccc(-c3ccc(Cl)cc3)n2-c2ccccc2C(F)(F)F)cc1 [Poloppin-II] | engages | engages | 0.0398 ± 0.00112 | –
2 | O=C(O)CCc1ccc(-c2ccc(Br)cc2)n1-c1ccccc1C(F)(F)F [Poloppin] | increases the thermal stability | increases the thermal stability | – | 13.7 ± 1.03
